One data set deals with PICSCs. In words: LIVE/DEAD Viability/Cytotoxicity Assay on PICSCs. The class given is cell-based, mouse. To be noted: 48 hours, single agent. Here is the method: This Example is directed to stem cell assays utilizing PICSCs generated in accordance with the presently disclosed and claimed inventive concept(s). The PICSCs were generated as described herein above (i.e., transformation of NIH-3T3 cells with RBM3 gene, followed by transplantation into a nude mouse, then sorting of cells obtained from generated tumors utilizing DCAMKL-1).
The PICSCs were exposed to various compounds/anti-cancer agents, and cell viability assays were then performed using the LIVE/DEAD® Viability/Cytotoxicity Assay from Molecular Probes/Invitrogen (Eugene, Oreg.). The LIVE/DEAD® Viability/Cytotoxicity Assay is an assay that provides a two-color fluorescence cell viability that is based on the simultaneous determination of both live and dead cells.
Briefly, PICSCs cells were grown in a 96 well microtitre plate ([…], Newton, N.C.) to about 40% confluency and treated with anti-cancer agents/compounds for 48 hours. Subsequently, chromogenic substrates Calcein AM and Ethidium homodimer-1 (EthD-1) was added to the cells. Calcein AM is well retained within the live cells, producing uniform green fluorescence in live cells (measured at 515 nM). EthD-1 enters cells with damaged membranes and undergoes an enhancement of fluorescence upon binding to nucleic acids, thereby producing a bright red fluorescence in dead cells (measured at 617 nM). The fluorescence measurement was carried out using a microtitre plate reader (Synergy HT, BIO-TEK, Vinooski, Vt.).
In FIGS. 70-84, the PICSCs were treated with increasing concentrations of various compounds or combinations of compounds for 48 hours, and the data presented therein is represented as a % Dead/Live cells ratio following said treatment. […] Values in each figure are given as average±Standard Error Mean, and asterisks denote statistically significant differences (*p<0.01) compared with control.

Data set [1] relates to DCAMKL-1. In words: siRNA knockdown of DCAMKL-1 in BxPC3 pancreatic cancer cells, real-time RT-PCR. The class given is cell-based, human. Here is the method:
Cell Culture: AsPC-1 and BxPC3 human pancreatic adenocarcinoma cell lines were obtained from the American Type Culture Collection and grown in Dulbecco's modified Eagle medium (DMEM) supplemented with 10% fetal bovine serum and 100 U/mL penicillin-streptomycin in a humidified chamber at 37° C. with 5% CO2.
Silencer RNA: DCAMKL-1 small interfering RNA (siRNA) (si-DCAMKL-1) sequence targeting the coding region of DCAMKL-1 (accession No. NM_004734; SEQ ID NO:1) ([…]tt (SEQ ID NO:3)) and scrambled siRNAs (si-Scr) not matching any of the human genes were obtained (Ambion Inc, Austin, Tex.) and transfected using siPORT™ NeoFX™ (Ambion, Inc).
Real-time Reverse Transcription-Polymerase Chain Reaction Analyses: Total RNA isolated from human pancreatic cancer cells or cells sorted from normal mouse pancreas were subjected to reverse transcription with Superscript II RNase H-Reverse Transcriptase and random hexanucleotide primers (Invitrogen, Carlsbad, Calif.). […] The changes in mRNA were expressed as fold change relative to control with ±SEM value.
miRNA Analysis: total RNA isolated from human pancreatic cancer cell lines or cells sorted from normal mouse pancreas was subjected to reverse transcription with Superscript II RNase H-Reverse Transcriptase and random hexanucleotide primers (Invitrogen). […] The changes in pri-miRNA were expressed as fold change relative to control with ±SEM values.

Data set [2] relates to DCAMKL-1. In words: siRNA knockdown of DCAMKL-1 in HCT116 cells, real-time RT-PCR and Western blot. In kind it is cell-based, human. The procedure: Cell culture. HCT116, HCT116 p21^−/− and SW480 human colon adenocarcinoma cell lines were obtained from the American Type Culture Collection (ATCC) and grown in Dulbecco's modified eagle's medium (DMEM) supplemented with 10% fetal bovine serum and 100 U/mL penicillin-streptomycin in a humidified chamber at 37° C. with 5% CO2.
Sequence of DCAMKL-1 (O15075 other isoform, or with tags, fused parts or gaps): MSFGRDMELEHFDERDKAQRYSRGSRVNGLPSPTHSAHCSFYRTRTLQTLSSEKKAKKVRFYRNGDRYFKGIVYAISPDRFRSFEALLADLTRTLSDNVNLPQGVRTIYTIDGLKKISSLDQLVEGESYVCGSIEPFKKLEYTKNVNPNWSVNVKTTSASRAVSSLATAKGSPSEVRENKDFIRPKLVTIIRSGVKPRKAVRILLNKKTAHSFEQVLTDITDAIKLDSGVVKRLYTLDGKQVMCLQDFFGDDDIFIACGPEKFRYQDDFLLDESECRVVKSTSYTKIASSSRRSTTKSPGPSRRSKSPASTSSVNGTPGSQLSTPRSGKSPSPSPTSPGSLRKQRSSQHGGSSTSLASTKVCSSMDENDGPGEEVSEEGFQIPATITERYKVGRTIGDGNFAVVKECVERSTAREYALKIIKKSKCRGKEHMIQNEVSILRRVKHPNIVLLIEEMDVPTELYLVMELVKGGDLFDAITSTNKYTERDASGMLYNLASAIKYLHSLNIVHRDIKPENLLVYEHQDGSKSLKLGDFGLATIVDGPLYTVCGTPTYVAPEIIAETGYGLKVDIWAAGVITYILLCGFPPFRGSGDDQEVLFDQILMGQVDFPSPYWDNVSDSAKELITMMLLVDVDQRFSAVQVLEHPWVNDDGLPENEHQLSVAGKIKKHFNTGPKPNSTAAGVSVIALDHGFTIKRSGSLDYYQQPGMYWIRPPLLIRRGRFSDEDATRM
Silencer RNA. DCAMKL-1 siRNA (si-DCAMKL-1) sequence targeting the coding region of DCAMKL-1 (Accession # NM_004734 (SEQ ID NO:1)) ([…] (SEQ ID NO:3)) and scrambled control siRNAs (si-Scr) not matching any of the human genes were obtained (Ambion Inc., Austin, Tex.) and transfected using Transfectol™ (Ambion Inc.).
Real-time reverse transcription-PCR analyses. Total RNA isolated either from cells or from human colon cancer cell tumor xenograft samples was subjected to reverse transcription with Superscript™ II RNase H—Reverse Transcriptase and random hexanucleotide primers (Invitrogen, Carlsbad, Calif.). The cDNA was subsequently used to perform Real-time PCR by SYBR chemistry (SYBR® Green I; Molecular Probes) for specific transcripts using gene specific primers and Jumpstart Taq DNA polymerase (Sigma-Aldrich, St. Louis, Mo.). […] The changes in mRNA were expressed as fold change relative to control with ±SEM value.
miRNA analysis. Total miRNA was isolated using mirVana™ miRNA isolation kit (Ambion Inc.). Total miRNA isolated either from cells or from human colon cancer cell tumor xenograft samples were subjected to reverse transcription with Superscript™ II RNase H—Reverse Transcriptase and random hexanucleotide primers (Invitrogen, Carlsbad, Calif.). The cDNA was subsequently used to perform Real-time PCR by SYBR chemistry (SYBR® Green I; Molecular Probes) for pri-let-7a transcript using specific primers and Jumpstart Taq DNA polymerase (Sigma-Aldrich, St. Louis, Mo.). […] The changes in pri-miRNA were expressed as fold change relative to control with ±SEM value. Primers used are: […]
Western Blot analysis. HCT116 and SW480 cells were cultured in a 6 well plates to 40% confluency and were transfected with si-DCAMKL-1 or si-Scr for 72 h. Cells or the tumor xenograft samples were lysed and the concentration of protein was determined by BCA protein assay kit (Pierce Biotechnology Inc., Rockford, Ill.). Forty μg of the protein was size separated in a 7.5-15% SDS polyacrylamide gel and transferred onto a nitrocellulose membrane with a semidry transfer apparatus (Amersham-Pharmacia, Piscataway, N.J.). The membrane was blocked in 5% non-fat dry milk for 1 h and probed overnight with a rabbit anti-DCAMKL-1 antibody (Abcam Inc., Cambridge, Mass.) or with rabbit anti-c-Myc antibody (Santa Cruz). Subsequently, the membrane was incubated with anti-rabbit or anti-goat IgG horseradish peroxidase-conjugated antibodies (Amersham-Pharmacia) for 1 h at room temperature. The 82 kDa DCAMKL-1 and 49 kDa c-Myc proteins were detected using ECL™ Western Blotting detection reagents (Amersham-Pharmacia). Actin (43 kDa), used as loading control was identified using a goat polyclonal IgG (Santa Cruz Biotechnology Inc., Santa Cruz, Calif.).

Some results are limits rather than exact numbers.

“si-DCAMKL-1: siRNA targeting the coding region of DCAMKL-1 (NM_004734), sequence GGGAGUGAGAACAAUCUAC (SEQ ID NO:3) (chemistry not given here; listed as Homo sapiens)”: the “PICSC cell death (% Dead/Live cells ratio)” value with PICSCs was “increasing levels of PICSC cell death”. Also, the “increase in pri-let-7a miRNA” value with DCAMKL-1 [1] (compared to control and siSCR) amounted to 3 fold; in the data set with DCAMKL-1 [2] (real-time RT-PCR, compared to controls) it was 4 fold. Besides, the “Notch1 mRNA” value in the data set with DCAMKL-1 [1] (compared to siSCR or control) is recorded as “significant decrease”. The “c-Myc mRNA and protein” value in the data set with DCAMKL-1 [2] was “Reduction”. Besides, the “reduction in Notch-1 mRNA” value with DCAMKL-1 [2] is recorded as 40%. Also, in the data set on DCAMKL-1 [2] (Western blot), the “Notch-1 and cleaved Notch-1 protein” value is “dose dependent reduction”. Further, the DCAMKL-1 protein entry in the data set on DCAMKL-1 [2] (Western blot, 72 h transfection) was “reduction”. Besides, the “reduction in DCAMKL-1 mRNA expression” value with DCAMKL-1 [2] (real-time RT-PCR) was > 70%.

Values taken from patent US8936941B2, “Compositions useful for cancer detection and treatment, a cancer stem cell model, and methods of production and use thereof” (priority 2008, dated 2015).
